Measured values as given in patent publication US6737383B1, “Herbicidal oxadiazolidines” (priority 1999, dated 2004).

Tests used:
[1] = system: crabgrass; test: Test B pre/postemergence crabgrass; type: in vivo, Digitaria sanguinalis
Method in brief: (§1)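 Response is a visual 0-to-10 score relative to untreated plants, where 0 means no effect and 10 means complete control, taken twelve to sixteen days after application. Treatments went onto soil at planting and onto foliage of 1- to 4-leaf plants, using a surfactant-containing non-phytotoxic solvent.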

[2] = system: morningglory; test: Test B pre/postemergence morningglory; type: in vivo, Ipomoea hederacea
Method in brief: as §1

[3] = system: bedstraw; test: Test B pre/postemergence bedstraw; type: in vivo, Galium aparine
Method in brief: as §1

[4] = system: blackgrass; test: Test B pre/postemergence blackgrass; type: in vivo, Alopecurus myosuroides
Method in brief: as §1

[5] = system: duck salad; test: Test B flood test duck salad; type: in vivo, Heteranthera limosa
Method in brief: (§2)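 Each value is a visual injury score relative to controls, with 10 meaning complete control and 0 no effect. Evaluation took place twelve to sixteen days after the 2-leaf-stage plants were treated and kept in the greenhouse.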

[6] = system: corn; test: Test B pre/postemergence corn; type: in vivo, Zea mays
Method in brief: as §1

[7] = system: smallflower flatsedge; test: Test B flood test smallflower flatsedge; type: in vivo, Cyperus difformis
Method in brief: as §2

[8] = system: wild oat; test: Test B pre/postemergence wild oat; type: in vivo, Avena fatua
Method in brief: as §1

[9] = system: soybean; test: Test B pre/postemergence soybean; type: in vivo, Glycine max
Method in brief: as §1

[10] = system: rape; test: Test B pre/postemergence rape; type: in vivo, Brassica napus
Method in brief: as §1

[11] = system: bamyardgrass; test: Test B flood test barnyardgrass; type: in vivo, Echinochloa crus-galli
Method in brief: as §2

[12] = system: giant foxtail; test: Test B pre/postemergence giant foxtail; type: in vivo, Setaria faberii
Method in brief: as §1

[13] = system: cocklebur; test: Test B pre/postemergence cocklebur; type: in vivo, Xanthium strumarium
Method in brief: as §1

[14] = system: wheat; test: Test B pre/postemergence wheat; type: in vivo, Triticum aestivum
Method in brief: as §1

[15] = system: velvetleaf; test: Test B pre/postemergence velvetleaf; type: in vivo, Abutilon theophrasti
Method in brief: as §1

[16] = system: surinam grass; test: Test B pre/postemergence surinam grass; type: in vivo, Brachiaria decumbens
Method in brief: as §1

[17] = Postemergence, Rate 125 g/ha, scale of 0 to 10 where 0 is no effect and 10 is complete control
[18] = Preemergence, Rate 62 g/ha, scale of 0 to 10 where 0 is no effect and 10 is complete control
[19] = Preemergence, Rate 125 g/ha, 0 is no effect, 10 is complete control
[20] = Preemergence, Rate 250 g/ha, scale 0 to 10, 0 is no effect, 10 is complete control
[21] = Preemergence, Rate 500 g/ha, scale 0 to 10 (0 no effect, 10 complete control)
[22] = Rate 62 g/ha, Postemergence, scale of 0 to 10 where 0 is no effect and 10 is complete control
[23] = Rate 250 g/ha, Postemergence, scale 0 to 10, 0 is no effect, 10 is complete control
[24] = Rate 500 g/ha, Postemergence, scale 0 to 10
[25] = Postemergence (flood test species), Rate 125 g/ha, scale of 0 to 10 where 0 is no effect and 10 is complete control
[26] = Rate 62 g/ha, Postemergence section, flood test species, scale of 0 to 10 where 0 is no effect and 10 is complete control
[27] = Rate 250 g/ha, Postemergence (flood test), scale 0 to 10, 0 is no effect, 10 is complete control
[28] = Rate 500 g/ha, listed under Postemergence (flood test species), scale 0 to 10

CC(C)N(C(=O)n1oc(=O)[nH]c1=O)c1ccc(F)cc1 [Compound 164]
4: Crabgrass plant response rating [1, 21]
2: Plant response rating, Crabgrass [1, 23] | Morningglory plant response rating [2, 24] | Plant response rating, Soybean [9, 23] | Soybean plant response rating [9, 24] | Giant foxtail plant response rating [12, 21]
7: Giant foxtail plant response rating [12, 24]
9: Crabgrass plant response rating [1, 24]
0: Crabgrass plant response rating [1, 17] | Crabgrass plant response rating [1, 18] | Crabgrass plant response rating (0 to 10 scale) [1, 19] | Crabgrass plant response rating [1, 20] | Crabgrass plant response rating [1, 22] | Morningglory plant response rating [2, 17] | Morningglory plant response rating [2, 18] | Morningglory plant response rating (0 to 10 scale) [2, 19] | Morningglory plant response rating [2, 20] | Morningglory plant response rating [2, 21] | Morningglory plant response rating [2, 22] | Plant response rating, Morningglory [2, 23] | Bedstraw plant response rating [3, 17] | Bedstraw plant response rating [3, 18] | Bedstraw plant response rating (0 to 10 scale) [3, 19] | Bedstraw plant response rating [3, 20] | Bedstraw plant response rating [3, 21] | Bedstraw plant response rating [3, 22] | Blackgrass plant response rating [4, 17] | Blackgrass plant response rating [4, 18] | Blackgrass plant response rating (0 to 10 scale) [4, 19] | Blackgrass plant response rating [4, 20] | Blackgrass plant response rating [4, 21] | Blackgrass plant response rating [4, 22] | Plant response rating, Blackgrass [4, 23] | Blackgrass plant response rating [4, 24] | Ducksalad plant response rating [5, 25] | Ducksalad plant response rating [5, 26] | Plant response rating, Ducksalad [5, 27] | Ducksalad plant response rating [5, 28] | Corn plant response rating [6, 17] | Corn plant response rating [6, 18] | Corn plant response rating (0 to 10 scale) [6, 19] | Corn plant response rating [6, 20] | Corn plant response rating [6, 21] | Corn plant response rating [6, 22] | Plant response rating, Corn [6, 23] | Corn plant response rating [6, 24] | S. Flatsedge plant response rating [7, 25] | S. Flatsedge plant response rating [7, 26] | Plant response rating, S. Flatsedge [7, 27] | S. Flatsedge plant response rating [7, 28] | Wild oats plant response rating [8, 18] | Wild oats plant response rating (0 to 10 scale) [8, 19] | Wild oats plant response rating [8, 20] | Wild oats plant response rating [8, 21] | Plant response rating, Wild oats [8, 23] | Wild oats plant response rating [8, 24] | Soybean plant response rating [9, 18] | Soybean plant response rating (0 to 10 scale) [9, 19] | Soybean plant response rating [9, 20] | Soybean plant response rating [9, 21] | Soybean plant response rating [9, 22] | Rape plant response rating [10, 17] | Rape plant response rating [10, 18] | Rape plant response rating (0 to 10 scale) [10, 19] | Rape plant response rating [10, 20] | Rape plant response rating [10, 21] | Rape plant response rating [10, 22] | Plant response rating, Rape [10, 23] | Rape plant response rating [10, 24] | Barnyardgrass plant response rating [11, 25] | Barnyardgrass plant response rating [11, 26] | Plant response rating, Barnyardgrass [11, 27] | Barnyardgrass plant response rating [11, 28] | Giant foxtail plant response rating [12, 17] | Giant foxtail plant response rating [12, 18] | Giant foxtail plant response rating (0 to 10 scale) [12, 19] | Giant foxtail plant response rating [12, 20] | Giant foxtail plant response rating [12, 22] | Plant response rating, Giant foxtail [12, 23] | Cocklebur plant response rating [13, 17] | Cocklebur plant response rating [13, 18] | Cocklebur plant response rating (0 to 10 scale) [13, 19] | Cocklebur plant response rating [13, 20] | Cocklebur plant response rating [13, 21] | Cocklebur plant response rating [13, 22] | Plant response rating, Cocklebur [13, 23] | Cocklebur plant response rating [13, 24] | Wheat plant response rating [14, 18] | Wheat plant response rating (0 to 10 scale) [14, 19] | Wheat plant response rating [14, 20] | Wheat plant response rating [14, 21] | Plant response rating, Wheat [14, 23] | Wheat plant response rating [14, 24] | Velvetleaf plant response rating [15, 18] | Velvetleaf plant response rating (0 to 10 scale) [15, 19] | Velvetleaf plant response rating [15, 20] | Velvetleaf plant response rating [15, 21] | Plant response rating, Velvetleaf [15, 23] | Velvetleaf plant response rating [15, 24] | B. signalgrass plant response rating [16, 17] | B. signalgrass plant response rating [16, 18] | B. signalgrass plant response rating (0 to 10 scale) [16, 19] | B. signalgrass plant response rating [16, 20] | B. signalgrass plant response rating [16, 21] | B. signalgrass plant response rating [16, 22] | Plant response rating, B. signalgrass [16, 23] | B. signalgrass plant response rating ([16]; Rate 500 g/ha, Postemergence, scale 0 to 10, 0 no effect, 10 complete control)
1: Soybean plant response rating [9, 17]
